Source: BigSolDB 2.1

CCOc1nc2cccc(C(=O)OC(C)OC(=O)OC3CCCCC3)c2n1Cc1ccc(-c2ccccc2-c2nn[nH]n2)cc1 (stereo not given)
solubility (mole fraction)
Details | in 2-butanone | in acetone | in acetonitrile | in ethanol | in isopropanol | in n-propanol
278.15 K | 0.00575 | 0.00383 | 0.00026 | 0.00055 | 0.00026 | 0.00062
283.15 K | 0.00653 | 0.00467 | 0.00033 | 0.00066 | 0.00037 | 0.00079
288.15 K | 0.00749 | 0.00566 | 0.00044 | 0.00086 | 0.00052 | 0.00098
293.15 K | 0.0086 | 0.00673 | 0.00058 | 0.00103 | 0.0007 | 0.00132
298.15 K | 0.01 | 0.00783 | 0.00071 | 0.0013 | 0.00093 | 0.00172
303.15 K | 0.0118 | 0.00946 | 0.00091 | 0.00163 | 0.00128 | 0.00208
308.15 K | 0.0138 | 0.0111 | 0.00127 | 0.00203 | 0.0017 | 0.00283
313.15 K | 0.016 | 0.0133 | 0.00159 | 0.00271 | 0.00221 | 0.00373
318.15 K | 0.019 | 0.0155 | 0.00195 | 0.00355 | 0.00298 | 0.00452
323.15 K | 0.0224 | 0.0182 | 0.00263 | 0.00458 | 0.00391 | 0.0059
328.15 K | 0.0264 | – | 0.00343 | 0.00573 | 0.00526 | 0.00759
333.15 K | 0.031 | – | 0.00442 | 0.00772 | 0.00667 | 0.00977
